Source: patent US20230355815A1, “ACTIVE DELIVERY OF RADIOTRACERS ACROSS THE BLOOD BRAIN BARRIER” (The Board of Trustees of the Leland Stanford Junior …, priority 2021, published 2023)

How the values were obtained:
[1] = biological target: T1, TSPO (Mus musculus, UniProt P50637); experiment: TSPO-PET/CT imaging of EAE mice; assay type: in vivo
T1 construct: endogenous in cells; host or cells: tissues of living C57BL/6 mice (EAE and naive)
Description: Mice were categorized as pre-symptomatic (pre; score 0, >1 g weight loss in 48 h), low (score 0.5-2), or high EAE (score 2.5-4.5). Anti-TREM1 monoclonal antibody (mAb) was DOTA-conjugated and radiolabeled with ^64Cu. PET/CT imaging was performed 20 hours post-injection of [^64Cu]TREM1-mAb (95-120 μCi, >99% RCP) or 50-60 min after TSPO-targeted radiotracer [^18F]GE-180 (231-269 μCi, >99% RCP). Following PET, mice were perfused to remove unbound intravascular tracer and radioactivity in central nervous system (CNS) tissues was measured using a gamma counter.
TREMl-PET is a more sensitive tool for detecting neuroinflammation in EAE compared to TSPO-PET Next, we examined the sensitivity of TREMl-PET compared to the gold standard approach for assessing neuroinflammation in vivo for both preclinical and clinical research—TSPO-PET. Naive and EAE mice were injected with [^18F]GE-180. a highly sensitive and selective tracer for TSPO in rodents (26), and PET images were acquired 50-60 min following tracer administration. […] Specifically, peritoneum adhesions encompassing the spleen. mesentery, and stomach, as well as abdominal granulomatous inflammation, have been reported in mice injected with CFA (27). […]
[^18F]GE-180 was synthesized as previously described (46). Chemical and radiochemical purity were determined by reverse-phase analytical HPLC (Phenomenex Luna column, 150×4.6 mm. particle size 3 μm. pore size 100 A) using a 11 min 50-95% gradient (0.1 mg/mL ascorbic acid in H2O:MeCN. monitored by gamma detection and UV at 254 and 280 nm). […]
PET images were analyzed using Vivoquant software (version 4.0. inviCRO) and visualized using Inveon Research Workspace (IRW, version 4.0: Siemens). Brain uptake was quantified as previously described (47). lo brief, a 3-dimensional mouse brain atlas was utilized to obtain tracer uptake values in a priori regions of interest (whole brain, pons. medulla. and cerebellum). Cervical/thoracic and lumbar spinal cord quantification was obtained via segmentation and exclusion of the vertebral column. […]

[2] = system: TREM1; conditions: animal models of sepsis; cited from earlier work
[3] = system: TREM1 signaling; experiment: LP17 treatment study in EAE mice; assay type: in vivo, mouse; conditions: vs saline
Description: Spinal cords were further analyzed via high-resolution autoradiography. Flow cytometry was performed on CNS tissues using TREM1, CD45, CD11b, CD11c, CD3, and Ly-6G to delineate immune cell populations. Quantitative PCR was performed to assess changes in mRNA expression. LP17, a decoy receptor peptide known to attenuate TREM1 signaling, was administered daily to pre EAE mice (10, 15 mg/kg, or saline i.p) for 10 days.
Blocking TREMi signaling genetically and pharmacologically attenuates EAE severity. To explore the biological relevance of TREMl in EAE development and progression, we assessed disease trajectory in KO EAE compared to WT EAE animals. While 83% of WT mice developed EAE, only 40% of Trem/KO mice developed symptoms during the same timeframe. […] Next, to determine if blocking TREM I signaling during disease development could have therapeutic effects, we treated WT EAE animals with LP 17 (10 or 15 mg/kg)—a 17 mer peptide decoy receptor, previously shown to attenuate TREMi signaling (25, 38)—and compared disease progression to vehicle (saline) treated mice.
LPI 7 peptide (sequence: […] […]) was synthesized by the Protein and Nucleic Acid Core Facility at Stanford University as previously described (J 9). WT EAE mice were induced with EAE and monitored daily as previously outlined. […] LP 17 or saline was administered daily (i.p) for 10 days and disease level was recorded.

T1 sequence (P50637 whole entry): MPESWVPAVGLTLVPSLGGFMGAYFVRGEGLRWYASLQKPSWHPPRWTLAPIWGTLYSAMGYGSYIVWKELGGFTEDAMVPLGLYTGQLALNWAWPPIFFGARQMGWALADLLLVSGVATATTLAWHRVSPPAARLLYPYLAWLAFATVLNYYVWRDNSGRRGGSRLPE

Row | Compound | TSPO-PET signal in the brain ([1]; EAE vs naive mice) | TSPO-PET uptake in cervical/thoracic and lumbar spinal cords ([1]; EAE vs naive mice, 50-60 min post-injection) | CNS tracer binding ([1]; control mice (CFA emulsion without MOG) vs naive untouched mice) | pro-inflammatory mediators and survival [2] | EAE disease severity ([3]; 10 mg/kg daily i.p. for 10 days from pre EAE stage) | EAE disease severity ([3]; 15 mg/kg daily i.p. for 10 days from pre EAE stage)
1 | CCN(CC)C(=O)[C@H]1CCCc2c1c1c(OC)cccc1n2CC[18F] [[^18F]GE-180] | no significant differences | significantly reduced uptake | decreased |  |  | 
2 | CC(C)[C@]12O[C@H]1[C@@H]1O[C@]13[C@]1(O[C@H]1C[C@H]1C4=C(CC[C@@]13C)C(=O)OC4)[C@@H]2O [triptolide] |  |  |  | reduce pro-inflammatory mediators and increase survival |  | 
3 | LP17: 17 mer peptide decoy receptor attenuating TREM1 signaling; sequence LQVTDSGL YRCVIYHPP (LQVTDSGLYRCVIYHPP) |  |  |  | reduce pro-inflammatory mediators and increase survival | not | Significant attenuation of disease severity
